Experimental data as given in PubChem BioAssay AID180 (DTP/NCI, 2004).
“And” between values parts separate entries of the source, which are not always exact repeats. Equal values may be shown once.

Tested on: BDF1 mice, Adenocarcinoma 755 s.c., tumor weight T/C
Test: NCI In Vivo Anticancer Drug Screen. Data for tumor model Adenocarcinoma 755 (subcutaneous) in B6D2F1 (BDF1) mice
Details: endpoint: mean tumor weight, higher = larger tumour
Summary of the method: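 Values express treated (T) relative to vehicle-dosed control (C) animals, based on survival or tumour size measured after compound treatment of mice bearing a transplanted tumour.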

[1] = dose: 60.0 mg/kg/injection, schedule: Q01DX011 (ip), vehicle: carboxymethylcellulose (CMC)

For Nc1nc(SCC(=O)c2ccccc2)c2[nH]cnc2n1, the T/C (dose: 0.46 mg/kg/injection, schedule: Q01DX011 (ip), vehicle: saline) was 95 % of control, the T/C (dose: 0.93 mg/kg/injection, schedule: Q01DX011 (ip), vehicle: saline) was 91 % of control and the T/C (dose: 1.87 mg/kg/injection, schedule: Q01DX011 (ip), vehicle: saline) was 75 % of control. For the same compound, the T/C (dose: 15.0 mg/kg/injection, schedule: Q01DX011 (ip), vehicle: saline) was 6 % of control, the T/C (dose: 30.0 mg/kg/injection, schedule: Q01DX011 (ip), vehicle: saline) was 4 % of control and 6 % of control and the T/C (dose: 60.0 mg/kg/injection, schedule: Q01DX011 (ip), vehicle: saline) was 4 % of control and 12 % of control. For the same compound, the T/C (dose: 120.0 mg/kg/injection, schedule: Q01DX011 (ip), vehicle: saline) was 2 % of control and the T/C (dose: 240.0 mg/kg/injection, schedule: Q01DX011 (ip), vehicle: saline) was 2 % of control.

With CC(=O)OC1(C)CC(C)C(=O)C(C(O)CC2CC(=O)NC(=O)C2)C1 (stereo not drawn) the T/C (dose: 0.2 mg/kg/injection, schedule: Q01DX006 (ip), vehicle: other) was 38 % of control, the T/C (dose: 0.5 mg/kg/injection, schedule: Q01DX006 (ip), vehicle: other) was 17 % of control and the T/C (dose: 0.5 mg/kg/injection, schedule: Q01DX006 (ip), vehicle: water) was 72 % of control. The T/C (dose: 2.0 mg/kg/injection, schedule: Q01DX006 (ip), vehicle: water) was 66 % of control, the T/C (dose: 5.0 mg/kg/injection, schedule: Q01DX006 (ip), vehicle: water) was 114 % of control and the T/C (dose: 10.0 mg/kg/injection, schedule: Q01DX006 (ip), vehicle: water) was 71 % of control. For the same compound, the T/C (dose: 1:500.0 dilution, schedule: Q01DX006 (ip), vehicle: water) was 84 % of control, the T/C (dose: 1:1000.0 dilution, schedule: Q01DX006 (ip), vehicle: water) was 115 % of control and the T/C (dose: 1:2000.0 dilution, schedule: Q01DX006 (ip), vehicle: water) was 105 % of control and 83 % of control. The T/C (dose: 1:20000.0 dilution, schedule: Q01DX006 (ip), vehicle: water) was 39 % of control and the T/C (dose: 1:100000.0 dilution, schedule: Q01DX006 (ip), vehicle: water) was 101 % of control.

In the case of COCC1OC2OC3C(COC)OC(OC4C(COC)OC(OC5C(COC)OC(OC6C(COC)OC(OC7C(COC)OC(OC8C(COC)OC(OC1C(O)C2O)C(O)C8O)C(O)C7O)C(O)C6O)C(O)C5O)C(O)C4O)C(O)C3O (stereo not drawn) (tested in a mixture with another compound), the T/C (dose: 3.12 mg/kg/injection, schedule: Q01DX011 (ip), vehicle: Klucel (hydroxypropylcellulose) (HPC)) is reported as 87 % of control, the T/C (dose: 6.25 mg/kg/injection, schedule: Q01DX011 (ip), vehicle: Klucel (hydroxypropylcellulose) (HPC)) is reported as 97 % of control and the T/C (dose: 12.5 mg/kg/injection, schedule: Q01DX011 (ip), vehicle: Klucel (hydroxypropylcellulose) (HPC)) is reported as 66 % of control. For the same compound, the T/C (dose: 25.0 mg/kg/injection, schedule: Q01DX011 (ip), vehicle: Klucel (hydroxypropylcellulose) (HPC)) was 95 % of control, the T/C (dose: 50.0 mg/kg/injection, schedule: Q01DX011 (ip), vehicle: Klucel (hydroxypropylcellulose) (HPC)) was 87 % of control and the T/C (dose: 100.0 mg/kg/injection, schedule: Q01DX011 (ip), vehicle: Klucel (hydroxypropylcellulose) (HPC)) was 51 % of control. The T/C (dose: 200.0 mg/kg/injection, schedule: Q01DX011 (ip), vehicle: Klucel (hydroxypropylcellulose) (HPC)) was 104 % of control and the T/C (dose: 400.0 mg/kg/injection, schedule: Q01DX011 (ip), vehicle: Klucel (hydroxypropylcellulose) (HPC)) was 71 % of control.

In the case of CC1CN1P1(N2CC2C)=NP(N2CC2C)(N2CC2C)=NP(N2CC2C)(N2CC2C)=N1 (stereo not drawn), the T/C (dose: 3.0 mg/kg/injection, schedule: Q01DX011 (ip), vehicle: saline) is reported as 81 % of control, the T/C (dose: 5.0 mg/kg/injection, schedule: Q01DX011 (ip), vehicle: saline) is reported as 53 % of control and the T/C (dose: 9.0 mg/kg/injection, schedule: Q01DX011 (ip), vehicle: saline) is reported as 52 % of control. The T/C (dose: 18.0 mg/kg/injection, schedule: Q01DX011 (ip), vehicle: saline) was 20 % of control and 35 % of control, the T/C (dose: 36.0 mg/kg/injection, schedule: Q01DX011 (ip), vehicle: saline) was 9 % of control and the T/C (dose: 75.0 mg/kg/injection, schedule: Q01DX011 (ip), vehicle: saline) was 24 % of control.

CCC(C)n1ncc2c(N(C)C)ncnc21 (stereo not drawn) was tested, and the T/C (dose: 16.25 mg/kg/injection, schedule: Q01DX011 (ip), vehicle: saline) was 54 % of control and 73 % of control, the T/C (dose: 32.5 mg/kg/injection, schedule: Q01DX011 (ip), vehicle: saline) was 42 % of control and 46 % of control and the T/C (dose: 65.0 mg/kg/injection, schedule: Q01DX011 (ip), vehicle: saline) was 6 % of control.

For O=C1NC(=O)C(c2ccccc2)(c2ccc(Cl)cc2Cl)N1 (stereo not drawn), the T/C (dose: 28.0 mg/kg/injection, schedule: Q01DX011 (ip), vehicle: carboxymethylcellulose (CMC)) was 54 % of control, the T/C (dose: 28.0 mg/kg/injection, schedule: Q01DX011 (ip), vehicle: saline) was 65 % of control and the T/C (dose: 56.0 mg/kg/injection, schedule: Q01DX011 (ip), vehicle: carboxymethylcellulose (CMC)) was 79 % of control. For the same compound, the T/C (dose: 56.0 mg/kg/injection, schedule: Q01DX011 (ip), vehicle: saline) was 89 % of control, the T/C (dose: 112.0 mg/kg/injection, schedule: Q01DX011 (ip), vehicle: carboxymethylcellulose (CMC)) was 62 % of control and the T/C (dose: 112.0 mg/kg/injection, schedule: Q01DX011 (ip), vehicle: saline) was 64 % of control. For the same compound, the T/C (dose: 224.0 mg/kg/injection, schedule: Q01DX011 (ip), vehicle: saline) was 24 % of control.

O=C(OCC1OC(n2cnc3c(=O)[nH]c(=O)[nH]c32)C(OC(=O)c2ccccc2)C1OC(=O)c1ccccc1)c1ccccc1 (stereo not drawn) was tested, and the T/C (dose: 30.0 mg/kg/injection, schedule: Q01DX011 (ip), vehicle: carboxymethylcellulose (CMC)) was 105 % of control, the T/C [1] was 78 % of control and the T/C (dose: 240.0 mg/kg/injection, schedule: Q01DX011 (ip), vehicle: carboxymethylcellulose (CMC)) was 59 % of control.

For N=[N+]=CC(=O)OCC(N)C(=O)O (stereo not drawn), the T/C (dose: 0.9 mg/kg/injection, schedule: Q01DX011 (ip), vehicle: carboxymethylcellulose (CMC)) was 124 % of control, the T/C (dose: 1.8 mg/kg/injection, schedule: Q01DX011 (ip), vehicle: carboxymethylcellulose (CMC)) was 111 % of control and the T/C (dose: 2.31 mg/kg/injection, schedule: Q01DX011 (ip), vehicle: carboxymethylcellulose (CMC)) was 72 % of control. The T/C (dose: 3.6 mg/kg/injection, schedule: Q01DX011 (ip), vehicle: carboxymethylcellulose (CMC)) was 90 % of control and 78 % of control, the T/C (dose: 4.63 mg/kg/injection, schedule: Q01DX011 (ip), vehicle: carboxymethylcellulose (CMC)) was 61 % of control and the T/C (dose: 4.8 mg/kg/injection, schedule: Q01DX011 (ip), vehicle: carboxymethylcellulose (CMC)) was 62 % of control and 74 % of control. The T/C (dose: 7.2 mg/kg/injection, schedule: Q01DX011 (ip), vehicle: carboxymethylcellulose (CMC)) was 28 % of control and 40 % of control and 51 % of control, the T/C (dose: 7.4 mg/kg/injection, schedule: Q01DX011 (ip), vehicle: carboxymethylcellulose (CMC)) was 50 % of control and the T/C (dose: 9.25 mg/kg/injection, schedule: Q01DX011 (ip), vehicle: carboxymethylcellulose (CMC)) was 50 % of control and 66 % of control. The T/C (dose: 12.33 mg/kg/injection, schedule: Q01DX011 (ip), vehicle: carboxymethylcellulose (CMC)) was 23 % of control and the T/C (dose: 18.5 mg/kg/injection, schedule: Q01DX011 (ip), vehicle: carboxymethylcellulose (CMC)) was 10 % of control.

With C/C(=N\NC(=O)c1ccncc1)c1cc(Cl)ccc1Cl the T/C (dose: 30.0 mg/kg/injection, schedule: Q01DX011 (ip), vehicle: methylcellulose (MC)) was 51 % of control and the T/C (dose: 60.0 mg/kg/injection, schedule: Q01DX011 (ip), vehicle: methylcellulose (MC)) was 27 % of control.

In the case of CCCCn1cnc2c(SCc3cccc(F)c3)nc(N)nc21, the T/C (dose: 3.1 mg/kg/injection, schedule: Q01DX011 (ip), vehicle: methylcellulose (MC)) is reported as 50 % of control, the T/C (dose: 6.25 mg/kg/injection, schedule: Q01DX011 (ip), vehicle: methylcellulose (MC)) is reported as 61 % of control and the T/C (dose: 12.5 mg/kg/injection, schedule: Q01DX011 (ip), vehicle: methylcellulose (MC)) is reported as 23 % of control. The T/C (dose: 25.0 mg/kg/injection, schedule: Q01DX011 (ip), vehicle: methylcellulose (MC)) was 1 % of control and 8 % of control.

For Nc1nc(C(F)(F)F)c2ncn(Cc3ccccc3)c2n1, the T/C [1] was 92 % of control and the T/C (dose: 120.0 mg/kg/injection, schedule: Q01DX011 (ip), vehicle: carboxymethylcellulose (CMC)) was 123 % of control.

With OCCNc1ncnc2c1ncn2C1CCCO1 (stereo not drawn) the T/C (dose: 50.0 mg/kg/injection, schedule: Q01DX011 (ip), vehicle: saline) was 174 % of control, the T/C (dose: 100.0 mg/kg/injection, schedule: Q01DX011 (ip), vehicle: saline) was 96 % of control and the T/C (dose: 200.0 mg/kg/injection, schedule: Q01DX011 (ip), vehicle: saline) was 48 % of control.
